From patent US9062124B2, “GIP-based mixed agonists for treatment of metabolic disorders and obesity” (priority 2008, dated 2015)
Read-outs that look alike come from different tables or passages of the source. *1 amine or outer side, *2 acyl side, *3 side chain or, on linkers, in order; H or OH if unused. Where a SMILES comes first, the peptide text is derived from it. Bridges are numbered along the chain shown (N, C = ends). Where no end group is shown, it is not given here. Side-chain parts run from the residue outwards. [ ]: non-standard residue; d: D form. The star is where a group is joined. PEG 40 kDa = PEG (40 kDa) covalently attached to Cys; γGlu = O=C(O)[C@H](CCC(=O)[*:2])N[*:1]; Palmitoyl = CCCCCCCCCCCCCCCC(=O)*; Aib = CC(C)(N)C(=O)O

Assays:
[1] = target: T1, glucagon receptor (Homo sapiens, UniProt P47871); experiment: cAMP synthesis functional assay (firefly luciferase reporter in HEK293 cells), glucagon receptor; assay type: cell-based; conditions: for % Relative activity at the Receptor for Glucagon: Table 8
T1 construct: expressed in transfected cells; host or cells: HEK293
T1 sequence (P47871 26-477): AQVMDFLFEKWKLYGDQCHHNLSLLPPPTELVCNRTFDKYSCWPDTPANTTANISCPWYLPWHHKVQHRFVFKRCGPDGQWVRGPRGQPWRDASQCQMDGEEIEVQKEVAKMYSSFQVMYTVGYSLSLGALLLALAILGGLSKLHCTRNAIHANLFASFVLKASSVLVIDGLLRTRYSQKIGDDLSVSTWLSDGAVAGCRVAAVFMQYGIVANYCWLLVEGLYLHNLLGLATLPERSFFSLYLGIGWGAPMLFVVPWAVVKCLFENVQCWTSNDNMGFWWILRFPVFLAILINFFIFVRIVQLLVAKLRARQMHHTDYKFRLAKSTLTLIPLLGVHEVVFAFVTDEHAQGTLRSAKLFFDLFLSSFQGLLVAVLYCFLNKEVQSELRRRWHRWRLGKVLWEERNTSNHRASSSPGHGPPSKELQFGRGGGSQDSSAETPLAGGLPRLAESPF

[2] = target: T2, GIP receptor (Homo sapiens, UniProt P48546); experiment: cAMP synthesis functional assay (firefly luciferase reporter in HEK293 cells), GIP receptor; assay type: cell-based; conditions: for % Relative activity at the Receptor for GIP: Table 8
T2 construct: expressed in transfected cells; host or cells: HEK293
T2 sequence (P48546 22-466): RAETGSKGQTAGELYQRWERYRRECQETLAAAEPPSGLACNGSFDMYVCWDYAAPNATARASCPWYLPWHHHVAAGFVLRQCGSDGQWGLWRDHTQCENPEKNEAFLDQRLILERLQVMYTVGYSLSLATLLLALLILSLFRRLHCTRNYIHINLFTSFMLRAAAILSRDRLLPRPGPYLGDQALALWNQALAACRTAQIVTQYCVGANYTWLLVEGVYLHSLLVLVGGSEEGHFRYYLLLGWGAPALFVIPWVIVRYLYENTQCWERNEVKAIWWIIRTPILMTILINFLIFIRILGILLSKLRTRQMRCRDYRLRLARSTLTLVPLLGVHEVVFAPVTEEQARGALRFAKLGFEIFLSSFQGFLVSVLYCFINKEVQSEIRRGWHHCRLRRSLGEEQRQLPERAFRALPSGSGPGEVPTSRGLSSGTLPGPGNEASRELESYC

[3] = Body weight of mice after peptide injection; conditions: DIO mice; for total change in body weight (weight loss, decrease): Example 41, subcutaneous daily for 7 days, 10 nmol/kg, Day 7
[4] = target: T3, GLP-1 receptor (Homo sapiens, UniProt P43220); experiment: cAMP synthesis functional assay (firefly luciferase reporter in HEK293 cells), GLP-1 receptor; assay type: cell-based; conditions: for % Relative activity at the Receptor for GLP-1: Table 8; for EC50: read-out: GLP-1 Receptor EC50
T3 construct: expressed in transfected cells; host or cells: HEK293
T3 sequence (P43220 24-463, species assumed): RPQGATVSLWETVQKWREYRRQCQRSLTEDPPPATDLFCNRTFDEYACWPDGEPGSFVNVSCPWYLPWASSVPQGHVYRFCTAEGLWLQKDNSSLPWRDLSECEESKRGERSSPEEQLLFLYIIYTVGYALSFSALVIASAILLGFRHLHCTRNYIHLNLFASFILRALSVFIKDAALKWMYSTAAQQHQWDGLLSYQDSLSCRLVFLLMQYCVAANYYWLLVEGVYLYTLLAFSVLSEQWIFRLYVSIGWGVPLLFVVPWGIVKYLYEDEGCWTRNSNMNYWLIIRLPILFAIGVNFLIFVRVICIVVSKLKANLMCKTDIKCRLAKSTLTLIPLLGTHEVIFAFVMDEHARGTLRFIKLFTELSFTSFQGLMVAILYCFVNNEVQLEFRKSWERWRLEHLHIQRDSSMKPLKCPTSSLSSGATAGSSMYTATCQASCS

[5] = tested on: glucagon receptor, GLP-1 receptor or GIP receptor; experiment: Agonist profile across receptors assigned from the cAMP reporter assay data; assay type: cell-based; conditions: assigned from the in vitro EC50 data of Tables 1-4
[6] = Table 4, relative to the native hormone
[7] = Table 1, relative to the native hormone of the indicated receptor
[8] = relative to the standard (Std.) EC50 of the same run

Compound	Glucagon Receptor relative activity [1, 6]	% Relative activity at the Receptor for Glucagon [1]	GIP Receptor relative activity [2, 6]	% Relative activity at the Receptor for GIP [2]	total change in body weight (weight loss, decrease) [3]	GLP-1 Receptor relative activity [4, 6]	% Relative activity at the Receptor for GLP-1 [4]	receptor activity profile (glucagon / GLP-1 / GIP agonism) [5]	also measured
CCCCCCCCCCCCCCCC(=O)N[C@@H](CCC(=O)N[C@@H](CCC(=O)NCCCC[C@H](NC(=O)[C@H](CO)NC(=O)[C@@H]1CCCN1C(=O)[C@@H]1CCCN1C(=O)[C@@H]1CCCN1C(=O)[C@H](C)NC(=O)CNC(=O)[C@H](CO)NC(=O)[C@H](CO)NC(=O)[C@@H]1CCCN1C(=O)CNC(=O)CNC(=O)[C@H](C)NC(=O)[C@H](CC(C)C)NC(=O)[C@H](CC(C)C)NC(=O)[C@H](Cc1c[nH]c2ccccc12)NC(=O)[C@H](CC(N)=O)NC(=O)[C@@H](NC(=O)[C@H](Cc1ccccc1)NC(=O)[C@H](CCC(=O)O)NC(=O)C(C)(C)NC(=O)[C@H](C)NC(=O)[C@H](C)NC(=O)[C@H](CCC(N)=O)NC(=O)[C@H](CCCCN)NC(=O)[C@H](CC(=O)O)NC(=O)[C@H](CC(C)C)NC(=O)[C@H](Cc1ccc(O)cc1)NC(=O)[C@@H](NC(=O)[C@H](CO)NC(=O)[C@H](Cc1ccc(O)cc1)NC(=O)[C@H](CC(=O)O)NC(=O)[C@H](CO)NC(=O)[C@@H](NC(=O)[C@H](Cc1ccccc1)NC(=O)[C@@H](NC(=O)CNC(=O)[C@H](CCC(=O)O)NC(=O)C(C)(C)NC(=O)[C@@H](N)Cc1ccc(O)cc1)[C@@H](C)O)[C@@H](C)O)[C@@H](C)CC)C(C)C)C(N)=O)C(=O)O)C(=O)O [mt-367]	4.11%	4.11%	202.82%	202.82%	~18%	405.94%	405.94%	–	EC50 ([2]; GIP Receptor EC50, nM, Table 4): 0.0014 nM
CCCCCCCCCCCCCCCC(=O)N[C@@H](CCC(=O)N[C@@H](CCC(=O)NCCCC[C@H](NC(=O)[C@H](CO)NC(=O)[C@@H]1CCCN1C(=O)[C@@H]1CCCN1C(=O)[C@@H]1CCCN1C(=O)[C@H](C)NC(=O)CNC(=O)[C@H](CO)NC(=O)[C@H](CO)NC(=O)[C@@H]1CCCN1C(=O)CNC(=O)CNC(=O)[C@H](C)NC(=O)[C@H](CC(C)C)NC(=O)[C@H](CC(C)C)NC(=O)[C@H](Cc1c[nH]c2ccccc12)NC(=O)[C@H](CC(N)=O)NC(=O)[C@@H](NC(=O)[C@H](Cc1ccccc1)NC(=O)[C@H](CCC(=O)O)NC(=O)C(C)(C)NC(=O)[C@H](C)NC(=O)[C@H](C)NC(=O)[C@H](CCC(N)=O)NC(=O)[C@H](CCCCN)NC(=O)[C@H](CC(=O)O)NC(=O)[C@H](CC(C)C)NC(=O)[C@H](Cc1ccc(O)cc1)NC(=O)[C@@H](NC(=O)[C@H](CO)NC(=O)[C@H](Cc1ccc(O)cc1)NC(=O)[C@H](CC(=O)O)NC(=O)[C@H](CO)NC(=O)[C@@H](NC(=O)[C@H](Cc1ccccc1)NC(=O)[C@@H](NC(=O)CNC(=O)[C@H](CCC(N)=O)NC(=O)C(C)(C)NC(=O)[C@@H](N)Cc1ccc(O)cc1)[C@@H](C)O)[C@@H](C)O)[C@@H](C)CC)C(C)C)C(N)=O)C(=O)O)C(=O)O [mt-368] (H-Y[Aib]QGTFTSDYSIYLDKQAA[Aib]EFVNWLLAGGPSSGAPPPSK([γGlu-γGlu-Palmitoyl])-NH2; N-terminus assumed)	491.82%	491.82%	296.07%	296.07%	~22%	418.93%	418.93%	–	EC50 ([1]; Glucagon Receptor EC50, nM, Table 4): 0.0069 nM
CCCCCCCCCCCCCCCC(=O)N[C@@H](CCC(=O)N[C@@H](CCC(=O)NCCCC[C@H](NC(=O)[C@H](CC(=O)O)NC(=O)[C@H](CO)NC(=O)[C@@H](NC(=O)[C@H](Cc1ccccc1)NC(=O)[C@@H](NC(=O)CNC(=O)[C@H](CCC(=O)O)NC(=O)C(C)(C)NC(=O)[C@@H](N)Cc1ccc(O)cc1)[C@@H](C)O)[C@@H](C)O)C(=O)N[C@@H](CO)C(=O)N[C@H](C(=O)N[C@@H](Cc1ccc(O)cc1)C(=O)N[C@@H](CC(C)C)C(=O)N[C@@H](CC(=O)O)C(=O)N[C@@H](CCCCN)C(=O)N[C@@H](CCC(N)=O)C(=O)N[C@@H](C)C(=O)N[C@@H](C)C(=O)NC(C)(C)C(=O)N[C@@H](CCC(=O)O)C(=O)N[C@@H](Cc1ccccc1)C(=O)N[C@H](C(=O)N[C@@H](CC(N)=O)C(=O)N[C@@H](Cc1c[nH]c2ccccc12)C(=O)N[C@@H](CC(C)C)C(=O)N[C@@H](CC(C)C)C(=O)N[C@@H](C)C(=O)NCC(=O)NCC(=O)N1CCC[C@H]1C(=O)N[C@@H](CO)C(=O)N[C@@H](CO)C(=O)NCC(=O)N[C@@H](C)C(=O)N1CCC[C@H]1C(=O)N1CCC[C@H]1C(=O)N1CCC[C@H]1C(=O)N[C@@H](CO)C(=O)N[C@@H](CCCCN)C(N)=O)C(C)C)[C@@H](C)CC)C(=O)O)C(=O)O [mt-369] (H-Y[Aib]EGTFTSDK([γGlu-γGlu-Palmitoyl])SIYLDKQAA[Aib]EFVNWLLAGGPSSGAPPPSK-NH2; N-terminus assumed)	1.54%	1.54%	204.26%	204.26%	~25%	385.05%	385.05%	–	EC50 ([2]; GIP Receptor EC50, nM, Table 4): 0.0014 nM
mt-170: lactam-containing GLP-1/GIP/glucagon triagonist peptide, C-terminal amide (Y[Aib]QGTFTSDYSIYLDEQAAKEFVNWLLAGGPSSGAPPPSC(PEG 40 kDa)-NH2; lactam 16-20)	–	–	–	–	–	–	–	exemplary GLP-1/GIP/glucagon triagonist peptides	reduction of body weight ([3]; Example 22, subcutaneous QW, 70 or 210 nmol/kg/week): a little more effective at reducing body weight in the mice as Chimera 2 AIB2, but not as effective as Chimera 2 AIB2 lactam
mt-179: glucagon analog peptide, C-terminal amide; called GIP/glucagon co-agonist and triagonist (Y[Aib]QGTFISDYSIYLDEQAAKEFVC(PEG 40 kDa)WLLAG-NH2; lactam 16-20)	–	–	–	–	–	–	–	exemplary GLP-1/GIP/glucagon triagonist peptides	Glucagon Receptor relative activity [1, 7]: 2.92%; EC50 ([1]; read-out: Glucagon Receptor EC50, Table 1): 1.27 nM; GIP Receptor relative activity [2, 7]: 3.74%; EC50 ([2]; read-out: GIP Receptor EC50, Table 1): 0.473 nM; GLP-1 Receptor relative activity [4, 7]: 7.50%; EC50 ([4]; Table 1): 260 pM
mt-249: linear peptide lacking a lactam bridge, AIB at position 16 and/or 20 (Y[Aib]QGTFTSDYSIYLD[Aib]QAAQEFVNWLLAGGPSSGAPPPSC(PEG 40 kDa)-NH2)	–	–	–	–	–	–	–	exhibited activities of glucagon/GLP-1/GIP triagonists	Glucagon Receptor relative activity ([1]; Table 2): 0.59%; EC50 ([1]; read-out: Glucagon Receptor EC50, Table 2, linear peptides with AIB at position 16 and/or 20): 10.3 nM; GIP Receptor relative activity ([2]; Table 2): 0.63%; EC50 ([2]; read-out: GIP Receptor EC50, Table 2): 2.71 nM; GLP-1 Receptor relative activity ([4]; Table 2): 2.56%; EC50 ([4]; Table 2): 391 pM
mt-295: linear peptide of Table 3 (Y[Aib]EGTFTSDYSIYLDKQAA[Aib]EFVNWLLAGGPSSGAPPPSC(PEG 40 kDa)-NH2)	–	–	–	–	–	–	–	exhibited activity at the GIP, GLP-1, and glucagon receptors	Glucagon Receptor relative activity [1, 8]: 0.03%; EC50 ([2]; read-out: GIP Receptor EC50, cAMP luciferase reporter assay as in Example 16): 0.0577 nM; GIP Receptor relative activity [2, 8]: 19.06%; EC50 ([4]; cAMP luciferase reporter assay as in Example 16): 114 pM; GLP-1 Receptor relative activity [4, 8]: 6.74%
mt-384: glucagon analog: Tyr1, AIB2, Lys10(γGlu-γGlu-C16), Ile12, Lys16, Gln17, Ala18, AIB20, Glu21, Asn24, Leu27, Ala28, Gly29, GPSSGAPPPS, amide (Y[Aib]QGTFTSDK([γGlu-γGlu-C16])SIYLDKQAA[Aib]EFVNWLLAGGPSSGAPPPS-NH2)	–	–	–	–	~21%	–	–	–	–
mt-385: same structure as Peptide mt-384 except that Thr at position 7 was changed to an Ile (Y[Aib]QGTFISDK([γGlu-γGlu-C16])SIYLDKQAA[Aib]EFVNWLLAGGPSSGAPPPS-NH2)	–	–	–	–	~15%	–	–	–	–
